Values after ≈ are worked out from the molar mass of the structure shown. Read-outs that look alike come from different tables or passages of the source.

Assay [1] deals with Klebsiella pneumoniae (KL PN), strain 10031. As to the kind of experiment: Microdilution tube dilution assay MIC, Klebsiella pneumoniae 10031. It counts as cell-based. The following applies: Mueller Hinton Broth, KL PN 10031. The text has this:
(§1) The following examples are presented for purposes of illustration and should not be construed as limitations upon the true scope of this invention.
KL PN--Klebsiella pneumoniae,
(§2) The product of Example 18 was reexamined by the microdilution method of tube dilution assay employing Mueller Hinton Broth whereby standardized cultures were introduced into serially diluted antibiotic from Example 18.

Assay [2] concerns Enterobacter aerogenes (EN AE), strain 13048. As to the kind of experiment: Microdilution tube dilution assay MIC, Enterobacter aerogenes 13048. It counts as cell-based. Particulars: Klebsiella aerogenes.
Source text: as §1
EN AE--Enterobacter aerogenes,
as §2

Assay [3] has as its system Staphylococcus aureus (ST AU), strain 53-180. Description: Microdilution tube dilution assay MIC, Staphylococcus aureus 53-180. The following applies: Mueller Hinton Broth, ST AU 53-180. It counts as cell-based.
Source text: as §1
(§3) ST AU--Staphylococcus aureus,
as §2

Assay [4] deals with Staphylococcus aureus (ST AU), strain SMITH. As to the kind of experiment: Microdilution tube dilution assay MIC, Staphylococcus aureus SMITH. Type of assay: cell-based. Particulars: Mueller Hinton Broth.
Source text: as §1, §3, §2

Assay [5] deals with Staphylococcus aureus (ST AU), strain CHP. As to the kind of experiment: Microdilution tube dilution assay MIC, Staphylococcus aureus CHP. It counts as cell-based. The following applies: Mueller Hinton Broth.
Source text: as §1, §3, §2

In assay [6] the test system is Proteus mirablis (PR MI), strain 9921. As to the kind of experiment: Microdilution tube dilution assay MIC, Proteus mirablis 9921. Type of assay: cell-based.
Source text: as §1, §2

For assay [7], the system named is Salmonella paratyphi (SA PA), strain 11737. Description: Microdilution tube dilution assay MIC, Salmonella paratyphi 11737. It counts as cell-based. Particulars: Salmonella enterica.
Assay [8] relates to Staphylococcus aureus (ST AU), strain 209P. As to the kind of experiment: Microdilution tube dilution assay MIC, Staphylococcus aureus 209P. It counts as cell-based.
Source text: as §1, §3, §2

Assay [9] has as its system Herellea species (HE SP), strain 9955. Description: Microdilution tube dilution assay MIC, Herellea species 9955. It counts as cell-based. Particulars: Mueller Hinton Broth, HE SP 9955.
Source text: as §1, §2

Assay [10] has as its system Proteus vulgaris (PR VU), strain 6896. As to the kind of experiment: Microdilution tube dilution assay MIC, Proteus vulgaris 6896. Type of assay: cell-based. Particulars: Mueller Hinton Broth, PR VU 6896.
Source text: as §1, §2

Assay [11] deals with Bacillus subtilis (BA SU), strain 6633. As to the kind of experiment: Microdilution tube dilution assay MIC, Bacillus subtilis 6633. It counts as cell-based.
Source text: as §1
BA SU--Bacillus subtilis,
as §2

In assay [12] the test system is Bordetella brochiseptica (BO BR), strain 4617. As to the kind of experiment: Microdilution tube dilution assay MIC, Bordetella brochiseptica 4617. It counts as cell-based. Particulars: Mueller Hinton Broth, BO BR 4617.
Source text: as §1
BO BR--Bordetella brochiseptica,
as §2

Assay [13] concerns Escherichia coli (ES CO), strain 9637. As to the kind of experiment: Microdilution tube dilution assay MIC, Escherichia coli 9637. It counts as cell-based. Particulars: Mueller Hinton Broth, ES CO 9637.
Source text: as §1, §2

Assay [14] concerns Pseudomonas aeruginosa (PS AE), strain 10145. Description: Microdilution tube dilution assay MIC, Pseudomonas aeruginosa 10145. It counts as cell-based. The following applies: Mueller Hinton Broth, PS AE 10145.
Source text: as §1
PS AE--Pseudomonas aeruginosa,
as §2

Assay [15] deals with ES IN, strain 65-1. Description: Microdilution tube dilution assay MIC, ES IN 65-1. Type of assay: cell-based, Escherichia intermedia. The following applies: Citrobacter intermedius.
Source text: as §1
ES IM--Escherichia intermedia.
as §2

For assay [16], the system named is Staphylococcus aureus (ST AU), strain SMITH. As to the kind of experiment: Agar serial dilution MIC, Staphylococcus aureus SMITH. It counts as cell-based.
Source text: (§4) The antibacterial compounds of this invention are effective against gram-positive and gram-negative test organisms at inhibitory concentrations at or below 250 micrograms per milliliter using the well-known and scientifically accepted agar serial dilution technique. Thus, the antibacterial agents of this invention are useful in the fields of comparative pharmacology and microbiology and may be used in the treatment of infections amenable to treatment with cephalosporins and penicillins such as bovine mastitis as well as in the eradication of bacterial colonies outside the animal host.
as §1
(§5) ST AU--Staphylococcus aureus, […]

The subject of assay [17] is Staphylococcus aureus (ST AU), strain 53-180. Description: Agar serial dilution MIC, Staphylococcus aureus 53-180. It counts as cell-based.
Source text: as §4, §1, §5

In assay [18] the test system is Proteus vulgaris (PR VU), strain 6896. As to the kind of experiment: Agar serial dilution MIC, Proteus vulgaris 6896. It counts as cell-based.
Source text: as §4, §1

Assay [19] concerns Enterobacter aerogenes (EN AE), strain 13048. Description: Agar serial dilution MIC, Enterobacter aerogenes 13048. Particulars: Klebsiella aerogenes, EN AE 13048. It counts as cell-based.
Source text: as §4, §1
EN AE--Enterobacter aerogenes, […]

The subject of assay [20] is Staphylococcus aureus (ST AU), strain CHP. As to the kind of experiment: Agar serial dilution MIC, Staphylococcus aureus CHP. It counts as cell-based.
Source text: as §4, §1, §5

In assay [21] the test system is Klebsiella pneumoniae (KL PN), strain 10031. Description: Agar serial dilution MIC, Klebsiella pneumoniae 10031. It counts as cell-based. The following applies: KL PN 10031.
Source text: as §4, §1
KL PN--Klebsiella pneumoniae, […]

The subject of assay [22] is Escherichia coli (ES CO), strain 9637. As to the kind of experiment: Agar serial dilution MIC, Escherichia coli 9637. It counts as cell-based. Particulars: ES CO 9637.
Source text: as §4, §1

Assay [23] deals with Staphylococcus aureus (ST AU), strain 6538P. Description: Agar serial dilution MIC, Staphylococcus aureus 6538P. Type of assay: cell-based. The following applies: ST AU 6538P.
Source text: as §4, §1, §5

In assay [24] the test system is Proteus mirablis (PR MI), strain 9921. Description: Agar serial dilution MIC, Proteus mirablis 9921. It counts as cell-based.
Source text: as §4, §1

The test system of assay [25] is Salmonella paratyphi (SA PA), strain 11737. As to the kind of experiment: Agar serial dilution MIC, Salmonella paratyphi 11737. It counts as cell-based. Particulars: Salmonella enterica.
Source text: as §4, §1
SA PA--Salmonella paratyphi, […]

Assay [26] relates to Bacillus subtilis (BA SU), strain 6633. As to the kind of experiment: Agar serial dilution MIC, Bacillus subtilis 6633. Type of assay: cell-based.
Source text: as §4, §1
BA SU--Bacillus subtilis, […]

Assay [27] deals with Enterobacter cloacae (EN CL), strain 65-1. As to the kind of experiment: Agar serial dilution MIC, Enterobacter cloacae 65-1. It counts as cell-based. Particulars: EN CL 65-1.
Source text: as §4, §1
EN CL--Enterobacter cloacae, […]

Assay [28] has as its system Bordetella brochiseptica (BO BR), strain 4617. Description: Agar serial dilution MIC, Bordetella brochiseptica 4617. It counts as cell-based. The following applies: BO BR 4617.
Source text: as §4, §1
BO BR--Bordetella brochiseptica, […]

For assay [29], the system named is AC CA, strain 9955. As to the kind of experiment: Agar serial dilution MIC, AC CA 9955. It counts as cell-based.
Source text: as §4, §1

As for `CO/N=C(\C(=O)N[C@@H]1C(=O)N2C(C(=O)O)=C(COC(C)=O)CS[C@H]12)c1csc(N)n1` [Cefotaxime, reference compound], the MIC in [1] was found to be 0.06 ng/mL (≈ 0.000132 µM); in assay [2] (microdilution, Mueller Hinton Broth, EN AE 13048, read-out: MIC) it was 0.0152 µg/mL (≈ 0.0334 µM); in assay [3] it was 0.976 µg/mL (≈ 2.14 µM); in assay [4], 0.244 µg/mL (≈ 0.536 µM); in assay [5], 3.9 µg/mL (≈ 8.56 µM); in assay [6], 0.0019 µg/mL (≈ 0.00417 µM). Also, the minimal inhibitory concentration (MIC) in assay [7] is 0.0076 µg/mL (≈ 0.0167 µM); in [8] (209P), 0.488 µg/mL (≈ 1.07 µM); in [9] it was 15.6 µg/mL (≈ 34.3 µM); in assay [10] it was 0.00023 µg/mL (≈ 0.000505 µM); in [11] it was 0.488 µg/mL (≈ 1.07 µM); in assay [12], 15.6 µg/mL (≈ 34.3 µM). Moreover, the MIC in assay [13] worked out at 0.0038 µg/mL (≈ 0.00834 µM); in assay [14], 3.9 µg/mL (≈ 8.56 µM); in [15] (microdilution, Mueller Hinton Broth, ES IN 65-1, read-out: MIC) it was 0.0038 µg/mL (≈ 0.00834 µM).
Consider `CO/N=C(/C(=O)NC1C(=O)N2C(C(=O)O)=C(COC(C)=O)CSC12)c1cc(N)no1` (stereo not drawn) [Example 15, 3-Acetoxymethyl-7-[2-(3-Amino-5-Isoxazolyl)-2-anti-Methoxyiminoacetamido]-Ceph-3-em-4-Carboxylic Acid], for which the MIC in assay [16] (agar serial dilution, ST AU SMITH, read-out: MIC) was found to be 3.9 µg/mL (≈ 8.88 µM); in [17], 15.6 µg/mL (≈ 35.5 µM); in assay [18] (agar serial dilution, PR VU 6896, read-out: MIC) it was 31.3 µg/mL (≈ 71.2 µM); in [19], 62.5 µg/mL (≈ 142 µM); in assay [20], 15.6 µg/mL (≈ 35.5 µM); in assay [21] it was 15.6 µg/mL (≈ 35.5 µM). Also, the MIC in assay [22] came to 15.6 µg/mL (≈ 35.5 µM); in assay [23] it was 7.81 µg/mL (≈ 17.8 µM); in assay [24] (agar serial dilution, PR MI 9921, read-out: MIC), 7.81 µg/mL (≈ 17.8 µM); in [25] it was 15.6 µg/mL (≈ 35.5 µM); in assay [26] (agar serial dilution, BA SU 6633, read-out: MIC), 7.81 µg/mL (≈ 17.8 µM); in assay [27], 62.5 µg/mL (≈ 142 µM).
For the compound `CO/N=C(\C(=O)NC1C(=O)N2C(C(=O)O)=C(COC(C)=O)CSC12)c1cc(N)no1` (stereo not drawn) [Example 18, 3-Acetoxymethyl-7-[2-(3-Amino-5-Isoxazolyl)-2-syn-Methoxy-Iminoacetamido]-Ceph-3-em-4-Carboxylic Acid], the minimum inhibitory concentration (MIC) in [1] was determined as 15.2 ng/mL (≈ 0.0346 µM); in assay [16], 0.488 µg/mL (≈ 1.11 µM); in assay [28] it was 250 µg/mL (≈ 569 µM); in assay [17] (agar serial dilution, ST AU 53-180, read-out: MIC), 3.9 µg/mL (≈ 8.88 µM); in assay [18], 0.976 µg/mL (≈ 2.22 µM); in assay [2] it was 0.976 µg/mL (≈ 2.22 µM). In addition, the MIC in assay [29] was 125 µg/mL (≈ 284 µM); in assay [19], 31.3 µg/mL (≈ 71.2 µM); in assay [3] it was 0.488 µg/mL (≈ 1.11 µM); in [20] (agar serial dilution, ST AU CHP, read-out: MIC), 7.81 µg/mL (≈ 17.8 µM); in assay [4], 0.244 µg/mL (≈ 0.555 µM); in assay [5], 3.9 µg/mL (≈ 8.88 µM). The MIC in assay [6] (microdilution, Mueller Hinton Broth, PR MI 9921, read-out: MIC) came out at 0.122 µg/mL (≈ 0.278 µM); in [7], 0.488 µg/mL (≈ 1.11 µM); in assay [8] (microdilution, Mueller Hinton Broth, ST AU 209P, read-out: MIC), 0.244 µg/mL (≈ 0.555 µM); in assay [9] it was 62.5 µg/mL (≈ 142 µM); in assay [21], 0.488 µg/mL (≈ 1.11 µM); in assay [10], 0.122 µg/mL (≈ 0.278 µM). Moreover, the MIC in assay [11] (microdilution, Mueller Hinton Broth, BA SU 6633, read-out: MIC) came out at 1.95 µg/mL (≈ 4.44 µM); in assay [22] it was 0.488 µg/mL (≈ 1.11 µM); in assay [12], 125 µg/mL (≈ 284 µM); in [23] it was 1.95 µg/mL (≈ 4.44 µM); in assay [24], 0.488 µg/mL (≈ 1.11 µM); in [13], 0.122 µg/mL (≈ 0.278 µM). Further, the MIC came to 0.488 µg/mL (≈ 1.11 µM) in assay [25]; 125 µg/mL (≈ 284 µM) in assay [14]; 0.488 µg/mL (≈ 1.11 µM) in [15]; 0.488 µg/mL (≈ 1.11 µM) in assay [26]; 1.95 µg/mL (≈ 4.44 µM) in [27].

Values taken from patent publication US4394504A, “Cephalosporin derivatives” (American Home Products Corporation, priority 1981, dated 1983).
